For the experiment, the target named is Akt3 (Homo sapiens, UniProt Q9Y243). As to the kind of experiment: Akt3 inhibition and activation activity (Foxp3 induction assay / Jurkat-FoxP3 luciferase reporter assay). Type of experiment: cell-based. To be noted: Table 2. On the procedure:
Sorted or enriched (Miltenyi magnetic separation) CD4 conventional T cells (Tconvs−CD4+/CD25) from C57/Bl6 mice were used for the induction of iTregs. A 10 µg/mL plate-bound anti-CD3 antibody (50 ul per well for 96-well plate), […] of soluble anti-CD28 antibody, 100 IU/mL of IL2 and 5 ng/mL of TGF-β in absence or presence of different concentrations of drug (usually titrating from 0.01 uM to 10 uM) were used. As negative control for induction, samples without TGF-β were used.
After 3 days of culture in presence of stimulation, TGF-β and drug, cells were stained with fixable live/dead cell stain (Life Technologies, NY) for gating and exclusion of toxic doses. The mouse Foxp3 buffer kit was used to fix and permeabilize cells according to the manufacturer's instructions (BD Bioscience, San Jose, Calif.). The anti-CD4 antibody and anti-Foxp3 antibody were used to stain the cells. After staining, cells were acquired using flow cytometer.
Cells Culture Process: Prepare a 50 ml conical tube and a T-25 culture flask with 5 ml of pre-warmed Thaw Medium 2 (no G418). Quickly thaw cells in a 37° C. water bath with constant and slow agitation. Immediately transfer the entire contents to the conical tube with Thaw Medium 2 (no G418) and centrifuge the cells at 200×g for 3 minutes.
(In general: Reporter assays use an easily measured gene product as a stand-in for the process of interest.)

pEC50: −log10 of the molar value.

Sequence of Akt3 (Q9Y243 2-479): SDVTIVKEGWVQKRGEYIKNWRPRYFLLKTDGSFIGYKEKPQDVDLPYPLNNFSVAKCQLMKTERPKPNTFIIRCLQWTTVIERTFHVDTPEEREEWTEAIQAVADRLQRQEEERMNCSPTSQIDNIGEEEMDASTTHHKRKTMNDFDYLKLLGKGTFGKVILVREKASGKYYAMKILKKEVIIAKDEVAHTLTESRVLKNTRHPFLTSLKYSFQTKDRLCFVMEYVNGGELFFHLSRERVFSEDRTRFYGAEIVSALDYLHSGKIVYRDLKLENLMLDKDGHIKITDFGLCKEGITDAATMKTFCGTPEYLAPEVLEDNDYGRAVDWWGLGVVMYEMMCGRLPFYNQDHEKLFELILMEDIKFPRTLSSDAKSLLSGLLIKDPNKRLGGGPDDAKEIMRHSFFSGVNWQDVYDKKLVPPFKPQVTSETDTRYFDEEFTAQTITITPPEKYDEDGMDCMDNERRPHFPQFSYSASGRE

In general, pEC50 refers to −log10 of the EC50, conventionally taken in molar units. Read a low pEC50 as a large EC50. As for “6-(2,6-dimethylmorpholino)-2-methyl-N-(4-(5-(2-methylpyridin-4-ylamino)-1H-benzo[d]imidazol-2-yl)phenyl)quinolin-4-amine [Compound 128]”, the pEC50 is over 7.30.

Source of the values: US20230183226A1, “AKT3 MODULATORS” (Georgiamune LLC, priority 2020, published 2023).
